The text below walks through data of US12410179B2, “Modulators of TNF alpha activity and uses thereof” (RayThera, Inc., priority 2023, dated 2025).

pIC50: −log10 of the molar value.

Chain of TNFα (P01375 77-233 limits assumed): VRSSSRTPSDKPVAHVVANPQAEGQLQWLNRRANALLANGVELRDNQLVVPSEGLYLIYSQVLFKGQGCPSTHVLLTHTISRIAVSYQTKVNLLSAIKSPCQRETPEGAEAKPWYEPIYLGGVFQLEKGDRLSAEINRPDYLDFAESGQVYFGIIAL

The assay addresses TNFα (Homo sapiens, UniProt P01375). Briefly: HEK-Blue hTNFα reporter assay. The assay is classed as cell-based. The following applies: HEK-Blue hTNFα reporter cells, SEAP readout; read-out: IC50 Range. Details: purchased R&D biosystem (R&D Systems) 210-TA-020/CF. The procedure, abridged:
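IC50 from 4-parameter regression of % inhibition, with OD620 of secreted SEAP (QUANTI-Blue, 1 h) referenced to cells with and without hTNFα. HEK-Blue TNFα reporter cells were exposed 24 h to compound premixed 1 h with hTNFα ([…]).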
As for `[2H]C([2H])([2H])N1C(=O)c2cccc(OC(F)F)c2[C@H]2C[C@@H]1c1nn3ccc(-c4cnc([C@]5(N)C[C@@](C)(O)C5)cn4)cc3c12` [Example 209], the pIC50 is more than 7.60.

Consider `CN1C(=O)c2cccc(C#N)c2[C@H]2C[C@@H]1c1nn3ccc(-c4cnc(C5(N)CCC5)nc4)cc3c12` [Example 54], for which the pIC50 is more than 7.60.

As for `[2H]C([2H])([2H])N1C(=O)c2cccc(OC(F)F)c2[C@H]2C[C@@H]1c1nn3cc(F)c(-c4cnc([C@]5(O)C[C@@](C)(N)C5)nc4)cc3c12` [Example 284], the pIC50 was more than 7.60.

As to `CN1C(=O)c2c(F)ccc(OC(F)F)c2[C@H]2C[C@@H]1c1nn3ccc(-c4cnc(C5(N)CCC5)nc4)cc3c12` [Example 322, (7R,14S)-12-(2-(1-aminocyclobutyl)pyrimidin-5-yl)-1-(difluoromethoxy)-4-fluoro-6-methyl-6,7-dihydro-7,14-methanobenzo[c]pyrido[1′,2′:1,5]pyrazolo[4,3-f]azocin-5 (14H)-one], the pIC50 was 7.00 to 7.60.

On to `[2H]C([2H])([2H])N1C(=O)c2cccc(OC(F)F)c2[C@H]2C[C@@H]1c1nn3ccc(-c4cnc([C@](O)(CC#N)C(F)F)nc4)cc3c12` [Example 96], for which the pIC50 is more than 7.60.

As for `CN1C(=O)c2cccc(OC(F)F)c2[C@H]2C[C@@H]1c1nn3cc(F)c(-c4cnc([C@]5(O)C[C@@H](O)C5)nc4)cc3c12` [Example 125], the pIC50 is more than 7.60.

In the case of `[2H]C([2H])([2H])N1C(=O)c2cccc(OC(F)F)c2[C@H]2C[C@@H]1c1nn3ccc(-c4cnc([C@]5(N)C[C@@](C)(C#N)C5)nc4)nc3c12` [Example 56], the negative logarithm of the IC50 (pIC50) was more than 7.60.

As for `CC(=O)N1CCN(c2ncc(-c3ccn4nc5c(c4c3)[C@@H]3C[C@H]5N(C)C(=O)c4cccc(OC(F)F)c43)cn2)CC1` [Example 148], the pIC50 was more than 7.60.

Consider `C[C@]1(O)C[C@](N)(c2ncc(-c3ccn4nc5c(c4c3)[C@@H]3C[C@H]5NC(=O)c4ccc(F)c(OC(F)F)c43)cn2)C1` [Example 229], for which the pIC50 was more than 7.60.

With `[2H]C([2H])([2H])N1C(=O)c2cccc(OC(F)F)c2[C@H]2C[C@@H]1c1nn3cc(F)c(-c4cnc([C@]5(N)C[C@](O)(C(F)(F)F)C5)nc4)nc3c12` [Example 183], the pIC50 was more than 7.60.

For `CN1C(=O)c2cccc(OC(F)F)c2[C@H]2C[C@@H]1c1nn3ccc(-c4cnc(OCP(C)(C)=O)nc4)cc3c12` [Example 67], the negative logarithm of the IC50 (pIC50) was more than 7.60.

On to `CN1C(=O)c2cccc(OC(F)F)c2[C@H]2C[C@@H]1c1nn3ccc(-c4ncc([C@@H](O)C5COC5)cn4)cc3c12` [Example 107], for which the pIC50 was more than 7.60.

Turning to `[2H]C([2H])([2H])N1C(=O)c2cccc(OC(F)F)c2[C@H]2C[C@@H]1c1nn3ccc(-c4cnc([C@]5(O)C[C@@](C)(C#N)C5)nc4)nc3c12` [Example 271], the pIC50 was more than 7.60.

For the molecule `Cn1ccc(N2CC=C(c3ccn4nc5c(c4c3)[C@@H]3C[C@H]5NC(=O)c4cccc(OC(F)F)c43)CC2)n1` [Example 315, (7R,14S)-1-(difluoromethoxy)-12-(1-(1-methyl-1H-pyrazol-3-yl)-1,2,3,6-tetrahydropyridin-4-yl)-6,7-dihydro-7,14-methanobenzo[c]pyrido[1′,2′:1,5]pyrazolo[4,3-f]azocin-5 (14H)-one], the pIC50 is 7.00 to 7.60.

As to `CN1C(=O)c2cccc(OC(F)F)c2[C@H]2C[C@@H]1c1nn3ccc(-c4ncc([C@@H](O)[C@H]5CCO5)cn4)cc3c12` [Example 130], the pIC50 is more than 7.60.

As for `[2H]C([2H])([2H])N1C(=O)c2cccc(OC(F)F)c2[C@H]2C[C@@H]1c1nn3cc(F)c(-c4cnc([C@]5(N)C[C@@](C)(C#N)C5)nc4)cc3c12` [Example 240], the pIC50 is more than 7.60.

`[2H]C([2H])([2H])N1C(=O)c2cccc(OC(F)F)c2[C@H]2C[C@@H]1c1nn3cc(F)c(-c4cnc([C@]5(N)C[C@@](C)(C#N)C5)cn4)cc3c12` [Example 200]: the pIC50 was more than 7.60.

For `[2H]C([2H])([2H])N1C(=O)c2cccc(OC(F)F)c2[C@H]2C[C@@H]1c1nn3ccc(-c4cnc(C5(O)CN(C)C5)nc4)cc3c12` [Example 278], the pIC50 was more than 7.60.

One may read the pIC50 as the IC50 on a negative log10 scale, so that one unit is a factor of ten.
